Common to all, as to assay type: cell-based
The test system of test [1] is Bacillus subtilis ATCC 6051. Briefly: microbe, parasite or virus in culture. As to conditions: ATCC 6051, 16 h. The source says:
(§1) We determined the MIC values of these teixobactin swapmer prodrugs against the Gram-positive bacteria Bacillus subtilis, Staphylococcus epidermidis, methicillin-susceptible Staphylococcus aureus (MSSA), and methicillin-resistant Staphylococcus aureus (MRSA) in a broth microdilution assay as described previously.[9],[10] We used the antibiotic vancomycin as a positive control and the Gram-negative bacterium Escherichia coli as a negative control. The MIC values for Lys10-teixobactin 1, Lys10-teixobactin prodrug 2, Arg10-teixobactin 6, and Arg10-teixobactin prodrug 7 are shown in Table 1 for comparison with the swapmer analogues.
(§2) We performed minimum inhibitory concentration (MIC) assays as previously described.[9] A concise procedure is detailed below.
(§3) Stock solutions of teixobactin analogues were prepared gravimetrically by dissolving an appropriate amount of peptide in 20 mg/mL sterile DMSO. The stock solutions were stored at −20 °C for subsequent experiments.
(§4) Bacillus subtilis (ATCC 6051), Staphylococcus epidermidis (ATCC 14990), methicillin-susceptible Staphylococcus aureus (MSSA) (ATCC 29213), and Escherichia coli (ATCC 10798) were cultured from glycerol stocks in Mueller-Hinton broth containing 0.002% polysorbate 80 overnight in a shaking incubator at 37 °C. Methicillin-resistant Staphylococcus aureus (MRSA) (ATCC 700698) was cultured from a glycerol stock in brain hearth infusion broth containing 0.002% polysorbate 80 overnight in a shaking incubator at 37 °C. After overnight incubation, each culture was diluted with the appropriate media (containing 0.002% polysorbate 80) to 1 × 10^6 colony-forming units (CFU)/mL as previously described.[12],[15],[16] Briefly, we have previously determined the CFU/mL for each bacterium at OD600 = 0.075 for 200 μL of bacterial culture in a 96-well plate. The OD600 of each overnight culture was determined, and then each culture was diluted to OD600 = 0.075. Cultures were further diluted to achieve 1 × 10^6 CFU/mL solutions.
(§5) Aliquots of the 20 mg/mL peptide stock solutions were diluted to make a 64 μg/mL solution in Mueller-Hinton broth containing 0.002% polysorbate 80 and a 64 μg/mL solution in brain heart infusion broth containing 0.002% polysorbate 80. The solutions were mixed by pipetting to ensure homogeneity. A 200-μL aliquot of a 64 μg/mL solution was transferred to a 96-well plate. 2-fold serial dilutions were made with media containing 0.002% polysorbate 80 across the 96-well plate to achieve a final volume of 100 μL in each well (initial concentrations ranging from 64 to 0.0625 μg/mL). A 100-μL aliquot of a 1 × 10^6 CFU/mL bacterial solution was added to each well in the series, resulting in final bacterial concentrations of 5 × 10^5 CFU/mL in each well. As 100 μL of bacteria were added to each well, the concentration of peptide was also diluted 2-fold (final concentrations ranging from 32 μg/mL to 0.03125 μg/mL). Each plate was covered with a lid and incubated at 37 °C for 16 h. The optical density measurements were measured at 600 nm using a 96-well UV–vis plate reader (MultiSkan GO, Thermo Scientific). The MIC values were taken as the lowest concentration that had no bacterial growth. MIC assays for each compound were performed in triplicate to ensure reproducibility.

In test [2] the test system is Escherichia coli ATCC 10798. Kind of test: microbe, parasite or virus in culture. Particulars: ATCC 10798, 16 h.
Source text: as §1, §2, §3, §4, §5

Test [3] has as its system Staphylococcus aureus (MRSA) ATCC 700698. Kind of test: microbe, parasite or virus in culture. As to conditions: ATCC 700698, 16 h.
Source text: as §1, §2, §3, §4, §5

Test [4] has as its system Staphylococcus aureus (MSSA) ATCC 29213. Briefly: microbe, parasite or virus in culture. Particulars: ATCC 29213, 16 h.
Source text: as §1, §2, §3, §4, §5

The subject of test [5] is Staphylococcus epidermidis ATCC 14990. Kind of test: microbe, parasite or virus in culture. Particulars: ATCC 14990, 16 h.
Source text: as §1, §2, §3, §4, §5

The test system of test [6] is Gram-positive bacteria tested. Particulars: 16 h.
Source text: as §1, §2, §3, §4
Aliquots of the 20 mg/mL peptide stock solutions were diluted to make a 64 μg/mL solution in Mueller-Hinton broth containing 0.002% polysorbate 80 and a 64 μg/mL solution in brain heart infusion broth containing 0.002% polysorbate 80. The solutions were mixed by pipetting to ensure homogeneity. A 200-μL aliquot of a 64 μg/mL solution was transferred to a 96-well plate. 2-fold serial dilutions were made with media containing 0.002% polysorbate 80 across the 96-well plate to achieve a final volume of 100 μL in each well (initial concentrations ranging from 64 to 0.0625 μg/mL). […] The optical density measurements were measured at 600 nm using a 96-well UV–vis plate reader (MultiSkan GO, Thermo Scientific). […]

Another test has as its system all bacteria tested. Kind of test: MIC broth microdilution assay, summary over all bacteria. Particulars: concentration range tested up to 32 μg/mL.
Source text: as §1, §2, §3
as §4, with “After overnight incubation, each culture was diluted with the appropriate media (containing 0.002% polysorbate 80) to 1 × 10^6 colony-forming units (CFU)/mL as previously described.[12],[15],[16]” left out, “Cultures were further diluted to achieve 1 × 10^6 CFU/mL solutions.” left out
Aliquots of the 20 mg/mL peptide stock solutions were diluted to make a 64 μg/mL solution in Mueller-Hinton broth containing 0.002% polysorbate 80 and a 64 μg/mL solution in brain heart infusion broth containing 0.002% polysorbate 80. […] The optical density measurements were measured at 600 nm using a 96-well UV–vis plate reader (MultiSkan GO, Thermo Scientific). […]
Background: Broth dilution looks for growth in wells or tubes with falling amounts of substance.

SMILES strings stand for the structures. Values after ≈ are worked out from the molar mass of the structure shown. Positions of bridges follow the written chain, without caps; N, C: chain ends. Non-standard residues stand in square brackets, D forms with d. Residues, ends and D or L forms follow the SMILES beside them. Chains are numbered I, II in the order given. d(aIle) = CC[C@H](C)[C@@H](N)C(=O)O; NMeF = CN[C@@H](Cc1ccccc1)C(=O)O; dNMeF = CN[C@H](Cc1ccccc1)C(=O)O

Regarding `CC[C@H](C)[C@H](NC(=O)[C@@H](Cc1ccccc1)NC)C(=O)N[C@@H](CO)C(=O)N[C@H](CCC(N)=O)C(=O)N[C@@H](C(=O)N[C@H](C(=O)N[C@@H](CO)C(=O)N[C@H]1C(=O)N[C@@H](C)C(=O)N[C@@H](CCCCN)C(=O)N[C@@H]([C@@H](C)CC)C(=O)O[C@H]1C)[C@@H](C)CC)[C@@H](C)CC` [compound 1, Lys10-teixobactin] (H-[dNMeF]IS[dQ][d(aIle)]IS[dT]AKI; ester 8-C), in test [1], the “MIC B. subtilis” value is no more than 0.0625 µg/mL and the “MIC Bacillus subtilis ATCC 6051” value was no more than 0.0313 µg/mL. The “MIC Escherichia coli ATCC 10798” value in test [2] was greater than 32 µg/mL. Moreover, in test [3], the “MIC Staphylococcus aureus (MRSA) ATCC 700698” value is 2 µg/mL (≈ 1.64 µM). Besides, the “MIC Staphylococcus aureus (MSSA) ATCC 29213” value in test [4] worked out at 2 µg/mL (≈ 1.64 µM). Further, the “MIC Staphylococcus epidermidis ATCC 14990” value in test [5] was 1 µg/mL (≈ 0.822 µM).
With `CC[C@H](C)[C@H](NC(=O)[C@@H](Cc1ccccc1)NC)C(=O)N[C@@H](CO)C(=O)N[C@H](CCC(N)=O)C(=O)N[C@@H](C(=O)N[C@H](C(=O)OC[C@H](N)C(=O)N[C@H]1C(=O)N[C@@H](C)C(=O)N[C@@H](CCCCN)C(=O)N[C@@H]([C@@H](C)CC)C(=O)O[C@H]1C)[C@@H](C)CC)[C@@H](C)CC` [compound 2, [Ile6-O-Ser7],Lys10-teixobactin] (I: H-[dNMeF]IS[dQ][d(aIle)]I / II: H-S[dT]AKI; ester I:C-II:1, II:2-II:C), in test [1], the “MIC B. subtilis” value was no more than 0.0625 µg/mL and the “MIC Bacillus subtilis ATCC 6051” value was no more than 0.0313 µg/mL. Besides, the “MIC Escherichia coli ATCC 10798” value in test [2] is greater than 32 µg/mL. The “MIC Staphylococcus aureus (MRSA) ATCC 700698” value in test [3] was in the range of 1 to 2 µg/mL. The “MIC Staphylococcus aureus (MSSA) ATCC 29213” value in test [4] came to 2 µg/mL (≈ 1.64 µM). Also, in test [5], the “MIC Staphylococcus epidermidis ATCC 14990” value is 1 µg/mL (≈ 0.822 µM).
For the compound `CC[C@H](C)[C@H](NC(=O)[C@H](CO)NC(=O)[C@@H](NC(=O)[C@@H](Cc1ccccc1)NC)[C@@H](C)CC)C(=O)N[C@@H](CCC(N)=O)C(=O)N[C@H](C(=O)OC[C@H](N)C(=O)N[C@H]1C(=O)N[C@@H](C)C(=O)N[C@@H](CCCCN)C(=O)N[C@@H]([C@@H](C)CC)C(=O)O[C@H]1C)[C@@H](C)CC` [compound 3, Ile4,Gln5,[Ile6-O-Ser7],Lys10-teixobactin] (I: H-[dNMeF]ISIQI / II: H-S[dT]AKI; ester I:C-II:1, II:2-II:C), the “MIC Bacillus subtilis ATCC 6051” value in test [1] amounted to 4 µg/mL (≈ 3.29 µM). In test [2], the “MIC Escherichia coli ATCC 10798” value is greater than 32 µg/mL. For the same compound, the “MIC Staphylococcus aureus (MRSA) ATCC 700698” value in test [3] worked out at 8 µg/mL (≈ 6.58 µM). The “MIC Staphylococcus aureus (MSSA) ATCC 29213” value in test [4] was determined as 8 µg/mL (≈ 6.58 µM). For the same compound, the “MIC Staphylococcus epidermidis ATCC 14990” value in test [5] amounted to 4 µg/mL (≈ 3.29 µM). Besides, in test [6], the “MIC values against the Gram-positive bacteria tested” value was in the range of 4 to 8 µg/mL; the “fold reduced activity compared to the unswapped analogues 1, 2, 6, and 7” value is 2–4 fold.
Take `CC[C@H](C)[C@H](NC(=O)[C@H](Cc1ccccc1)NC)C(=O)N[C@@H](CO)C(=O)N[C@H](C(=O)N[C@@H](CCC(N)=O)C(=O)N[C@H](C(=O)OC[C@H](N)C(=O)N[C@H]1C(=O)N[C@@H](C)C(=O)N[C@@H](CCCCN)C(=O)N[C@@H]([C@@H](C)CC)C(=O)O[C@H]1C)[C@@H](C)CC)[C@@H](C)CC` [compound 4, N-Me-L-Phe1,Ile4,Gln5,[Ile6-O-Ser7],Lys10-teixobactin] (I: H-[NMeF]ISIQI / II: H-S[dT]AKI; ester I:C-II:1, II:2-II:C): the “MIC Bacillus subtilis ATCC 6051” value in test [1] was no less than 32 µg/mL. The “MIC Escherichia coli ATCC 10798” value in test [2] is greater than 32 µg/mL. Also, in test [3], the “MIC Staphylococcus aureus (MRSA) ATCC 700698” value was greater than 32 µg/mL. Besides, in test [4], the “MIC Staphylococcus aureus (MSSA) ATCC 29213” value is greater than 32 µg/mL. Besides, in test [5], the “MIC Staphylococcus epidermidis ATCC 14990” value was greater than 32 µg/mL. For the same compound, in the test with all bacteria tested, the “antibiotic activity in words against all bacteria tested” value is “virtually inactive”.

The values are drawn from PMC11494653, “Teixobactin “Swapmers” with L Tail Stereochemistry Retain Antibiotic Activity” (The Journal of Organic Chemistry, 2024).
